Experimental data as given in paper PMC1247661 (Environmental Health Perspectives, 2004).

Experiments:
hepatic gene expression [1] = assay: Real-time RT-PCR of hepatic mRNA after 13-week exposure: TCDD 100, PeCDF 200, PCB126 1,000 ng/kg/day, PCB153 1,000 μg/kg/day; type: in vivo, female Harlan Sprague-Dawley rats; conditions: liver, 13 weeks; average (± 1 SD) of three RNA pools; normalized to 18S RNA
Protocol: Tissues for this study were provided by the NTP ([NTP 2004a], [2004b], [2004c]) as part of a 2-year bioassay for relative carcinogenic potencies of dioxin-like chemicals. […] Toxicologic dose equivalence was based on the current World Health Organization TEF recommendations ([Van den Berg et al. 1998]). Subgroups of rats were sacrificed at 14, 31, and 53 weeks (corresponding to 13, 30, or 52 weeks of exposure), and target organs were removed, flash frozen in liquid nitrogen, and stored at −70°C for mechanistic studies.
Frozen hepatic tissue was disrupted by homogenization with a rotor stator homogenizer, and total RNA was isolated with Qiagen RNeasy columns Qiagen Inc., Valencia, CA). There were a total of six rats in each exposure group. Three pools of RNA were created from each exposure group (n = 2 rats per pool), similar to the experimental design of [Yechoor et al. (2002)]. Pooled total RNA was further purified using the Qiagen poly(A) RNA isolation kit. RNA integrity was assessed by the Agilent Bioanalyzer 2100 (Agilent Technologies, Palo Alto, CA). […] Poly(A) RNA was transformed into labeled cRNA by the Roswell Park Cancer Institute Microarray and Genomics Core Facility (Buffalo, NY). cRNA from each pool was fragmented and its quality evaluated with Affymetrix GeneChip Test3 arrays (Santa Clara, CA) by comparing 3′:5′ signal ratios of housekeeping genes. High-quality cRNA (3′:5′ signal ratio near 1) was subsequently hybridized to Affymetrix RGU34A GeneChips, and chips were scanned with the Affymetrix 428 scanner.
Reverse transcriptase reactions (80 μL) contained 20 μg total RNA, 0.5 mM dNTP mix, and 15 ng/μL random primers, 1 × first-strand buffer, 10 mM dithiothreitol, 27 U Rnasin RNase inhibitor (Promega, Madison, WI), and 800 U superscript reverse transcriptase (Invitrogen). A mixture containing total RNA, dNTPs, and random primers was heated to 65°C for 5 min to denature the RNA and then immediately placed on ice. The remaining components of the reaction mixture were then added to the RNA, and cDNA synthesis was performed at 42°C for 60 min. Reactions were terminated by heating to 70°C for 10 min.
PCR primers were selected from GenBank database sequences with Primer3 software ([Rozen and Skaletsky 2000]). […] Nonspecific mispriming was managed by a mispriming threshold of 10.0 in the rodent mispriming library.
Real-time PCR was performed with the SYBR Green PCR kit from Applied Biosystems (Foster City, CA) according to the manufacturer’s instructions. PCR reactions (25 μL) contained diluted cDNA, 1 × SYBR Green buffer, 3 mM MgCl2, 0.2 mM dNTP mix, 0.2 μM left and right primers, 10 nM fluorescein, and 1.1 U of Amplitaq Gold polymerase. The reaction was initiated by incubation at 95°C for 10 min and followed by 40 cycles of denaturation at 95°C for 15 sec and primer annealing/extension at 60°C for 1 min. Sample fluorescence was evaluated during the annealing/extension step. Upon completion of thermocycling, the specificity of each reaction was evaluated by melting analysis. Samples were heated to 95°C for 2 min and cooled to 55°C. The temperature was maintained at 55°C for 15 sec to analyze sample fluorescence, and the temperature was increased by increments of 0.5°C followed by 15 sec of fluorescence analysis for a total of 80 cycles.
The efficiency of each primer set was validated over a range of cDNA concentrations. […] After primer validation, PCR reactions were performed with a single cDNA concentration, and the threshold cycle (Ct) was determined for each reaction. The difference (ΔCt) between the threshold cycle for the target gene and endogenous control gene (18S RNA) was calculated for each sample, and the 18S normalized relative expression of each gene was calculated by the comparative method according to the Applied Biosystems’ User Bulletin No. 2 for the ABI Prism Sequence Detection System (Applied Biosystems), as described by [Imasato et al. (2002)].

hepatic gene expression [2] = conditions: liver, 13 weeks; average (± 1 SD) of three GeneChips
[3] = 13 weeks; mean ±SD of 10 rats; TCDD 100, PeCDF 200, PCB126 1,000 ng/kg/day, PCB153 1,000 μg/kg/day; ref NTP 2004a, 2004b, 2004c; cited from earlier work
liver [4] = conditions: 13 weeks, ref NTP 2004a, 2004b, 2004c, cited from earlier work; for Liver hypertrophy, incidence (number of rats of 10): TCDD 100, PeCDF 200, PCB126 1,000 ng/kg/day, PCB153 1,000 μg/kg/day; for Liver hypertrophy, severity in words: highest dose of each compound; for Liver hypertrophy, mean severity score: 1, minimal, 2, mild, 3, moderate, 4, marked
liver [5] = conditions: TCDD 100, PeCDF 200, PCB126 1,000 ng/kg/day, ref NTP 2004a, 2004b, 2004c; cited from earlier work
[6] = same doses, 1, minimal to 4, marked

SMILES | C-CAM4 mRNA, average change vs vehicle, RT-PCR (hepatic gene expression [1]) | CAP2 mRNA, average change vs vehicle, RT-PCR (hepatic gene expression [1]) | CES3 mRNA, average change vs vehicle, RT-PCR (hepatic gene expression [1]) | CYP1B1 mRNA, average change vs vehicle, RT-PCR (hepatic gene expression [1]) | CYP3A9 mRNA, average change vs vehicle, RT-PCR (hepatic gene expression [1]) | SERPIN7A mRNA, average change vs vehicle, RT-PCR (hepatic gene expression [1]) | SST mRNA, average change vs vehicle, RT-PCR (hepatic gene expression [1]) | CES3 mRNA, average change vs vehicle, Microarray (hepatic gene expression [2]) | CYP1B1 mRNA, average change vs vehicle, Microarray (hepatic gene expression [2]) | CYP3A9 mRNA, average change vs vehicle, Microarray (hepatic gene expression [2]) | SERPIN7A mRNA, average change vs vehicle, Microarray (hepatic gene expression [2]) | SST mRNA, average change vs vehicle, Microarray (hepatic gene expression [2]) | Liver levels [3] | Liver hypertrophy, incidence (number of rats of 10) (liver [4]) | Liver hypertrophy, severity in words (liver [4]) | Liver hypertrophy, mean severity score (liver [4]; same doses) | Diffuse fatty change, incidence (number of rats of 10) (liver [4]; same doses) | Multinucleated hepatocytes, incidence (number of rats of 10) (liver [4]; same doses) | Pigmentation, incidence (number of rats of 10) (liver [4]; same doses) | C-CAM4 mRNA, average change vs vehicle, Microarray (hepatic gene expression [2]) | other results
Clc1cc(Cl)c(-c2cc(Cl)c(Cl)cc2Cl)cc1Cl [PCB153, 2,2′,4,4′,5,5′-hexachlorobiphenyl] | −1.1 (−1.3 to 1) | −1.3 (−1.5 to −1.1) | 2.4 (2.1 to 2.6) | −1.2 (−1.6 to 1) | −1.8 (−2.1 to −1.5) | −1.2 (−1.5 to 1) | −3 (−3.5 to −2.5) | 1.3 (1 to 1.6) | 2.1 (1 to 3.2) | 1.6 (0.8 to 2.4) | 1.6 (1.3 to 1.9) | −9.5 (−10.1 to −8.9) | 9,250 ± 2,061 ng/g | 9 | minimal | 1.2 | 0 | 0 | 0 |  | 
Clc1ccc(-c2cc(Cl)c(Cl)c(Cl)c2)cc1Cl [PCB126, 3,3′,4,4′,5-pentachlorobiphenyl] | 3.5 (2.6 to 4.7) | 119.4 (104 to 137.2) | −1.4 (−1.5 to −1.3) | 106.4 (98.2 to 115.3) | −28.5 (−30.2 to −26.9) | −8.4 (−12 to −5.9) | −1.5 (−1.6 to −1.4) | −4 (−4.4 to −3.6) | 317.1 (41.1 to 593.1) |  | −4 (−4.9 to −3.1) | −6.4 (−9.4 to −3.4) | 412.6 ± 73.5 ng/g | 10 | minimal to mild | 1.7 | 0 | 0 | 0 | 25.1 (4 to 46.2) | CAP2 mRNA, average change vs vehicle, Microarray (hepatic gene expression [2]): 7.6 (2 to 13.2); liver findings after 2 years of exposure (liver [5]): cholangiocarcinoma, hepatocellular adenoma, toxic hepatopathy, multinucleated hepatocytes, diffuse fatty change, and liver pigmentation
Clc1cc2oc3c(Cl)c(Cl)c(Cl)cc3c2cc1Cl [PeCDF, 2,3,4,7,8-pentachlorodibenzofuran] | 2.5 (2.3 to 2.7) | 20.2 (17.8 to 22.9) |  | 59.7 (48.3 to 73.8) | −4.2 (−5 to −3.5) | −29.9 (−32 to −27.9) | −1.6 (−2 to −1.2) | −2.8 (−3.8 to −1.8) | 493.3 (310.1 to 676.5) | −2.3 (−3.3 to −1.3) | −2.7 (−3.6 to −1.8) | −8.3 (−11.1 to −5.5) | 132.9 ± 47.4 ng/g |  |  |  |  | 0 |  | 37.4 (25.5 to 49.3) | CAP2 mRNA, average change vs vehicle, Microarray (hepatic gene expression [2]): 10.9 (4 to 17.8)
Clc1cc2c(cc1Cl)Oc1cc(Cl)c(Cl)cc1O2 [TCDD, 2,3,7,8-tetrachlorodibenzo-p-dioxin] | 4.1 (3.8 to 4.4) | 168.9 (147.9 to 192.9) | −4.8 (−5.2 to −4.4) | 256 (236.3 to 277.3) | −1024 (−1201.8 to −872.5) | −26.6 (−30.2 to −23.4) | −36.8 (−46.4 to −29.1) | −8.1 (−9.9 to −6.3) | 676.3 (470.8 to 881.8) | −35.4 (−53.4 to −17.4) | −11.5 (−17.2 to −5.8) | −8 (−10.5 to −5.5) | 18.3 ± 0.8 ng/g | 10 | mild to moderate | 2.3 | 2 | 3 | 0 | 133.4 (112.1 to 154.7) | CAP2 mRNA, average change vs vehicle, Microarray (hepatic gene expression [2]): 53.6 (31.1 to 76.1); Diffuse fatty change, mean severity score (liver [4]; [6]): 1.0; Multinucleated hepatocytes, mean severity score (liver [4]; [6]): 1.0; liver findings after 2 years of exposure (liver [5]): cholangiocarcinoma, hepatocellular adenoma, toxic hepatopathy, multinucleated hepatocytes, diffuse fatty change, and liver pigmentation
